Measurements published in patent US4746349A, “Method and compositions for suppressing the nitrification of ammonium in plant growth medium” (American Cyanamid Company, priority 1986, dated 1988).
Structures can show the parent of a compound that is named as a salt.

Key:
Nitrosomonas spp. = assay: Nitrification of ammonium in soil incubated at 25° C. (ammonium recovery, nitrate accumulation); conditions: soil 25° C.; for Concentration of nitrate nitrogen / Recovery of Ammonium Nitrogen: 200 ppm N
Description: In these evaluations, one hundred grams (100 g) of oven dry, silt loam field soil with low residual nitrogen is added to a 6×12 cm screw-capped glass jar for each sampling date to provide an optimum environment for nitrification.
Two replicates of each treatment-sampling date are established. The soil is adjusted to 50% water saturation with an aqueous solution of ammonium sulfate at 200 ppm N and the chemical to be tested as a nitrification inhibitor at rates of from 0.10 to 0.50 ppm.
Incubation is at either 25° C. or 38° C. for 0, 1, 2, 4, 7, 9, 12, 16 or 20 weeks. Inorganic N is extracted by adding 2M KCl (10:1 v/w) and shaking for one hour, allowing settling for fifteen minutes. A 10 ml aliquot from the supernatant is assayed for ammonium, nitrite and nitrate by standard steam distillation methods (AOAC, pp. 653-655). Nitrapyrin (0.5 ppm) is used as a nitrification inhibitor for comparison. Benzyl alcohol, acetone, and a non-N amended soil are run as controls and as a check on mineralization.
Nitrification: Ammonium recovery and nitrate accumulation are indicative of nitrification, and data obtained with test compounds are reported in Tables I and II.

Nitrobacter spp. = assay: Nitrite nitrogen in ammonium amended soil incubated at 25° C.; conditions: soil 25° C., 200 ppm N
Description: Determination of nitrite nitrogen and nitrate nitrogen in soil prepared in Example 1 above, which is amended with 200 ppm of nitrogen as aqueous ammonium sulfate, […], is determined using the nitrite and nitrate analysis of the American Organization of Analytical Chemists (AOAC pp. 653-655).

CC[C@@H](C(=O)[C@@H](C)[C@@H](O)[C@H](C)[C@@H]1O[C@@H]([C@@H](CC)C(=O)O)CC[C@@H]1C)[C@H]1O[C@]2(C=C[C@@H](O)[C@]3(CC[C@@](C)([C@H]4CC[C@](O)(CC)[C@H](C)O4)O3)O2)[C@H](C)C[C@@H]1C [Salinomycin monosodium salt, Salinomycin]
Concentration of nitrate nitrogen (Nitrosomonas spp.; 0.10 ppm, week 0): 18 PPM | Recovery of Ammonium Nitrogen (Nitrosomonas spp.; 0.10 ppm, week 0): 194 PPM | Concentration of nitrate nitrogen (Nitrosomonas spp.; 0.10 ppm, week 1): 20 PPM | Recovery of Ammonium Nitrogen (Nitrosomonas spp.; 0.10 ppm, week 1): 171 PPM | Concentration of nitrate nitrogen (Nitrosomonas spp.; 0.10 ppm, week 2): 20 PPM | Recovery of Ammonium Nitrogen (Nitrosomonas spp.; 0.10 ppm, week 2): 183 PPM | Concentration of nitrate nitrogen (Nitrosomonas spp.; 0.10 ppm, week 4): 26 PPM | Recovery of Ammonium Nitrogen (Nitrosomonas spp.; 0.10 ppm, week 4): 184 PPM | Concentration of nitrate nitrogen (Nitrosomonas spp.; 0.10 ppm, week 7): 27 PPM | Recovery of Ammonium Nitrogen (Nitrosomonas spp.; 0.10 ppm, week 7): 136 PPM | Concentration of nitrate nitrogen (Nitrosomonas spp.; 0.10 ppm, week 9): 201 PPM | Recovery of Ammonium Nitrogen (Nitrosomonas spp.; 0.10 ppm, week 9): 3 PPM | Concentration of nitrate nitrogen (Nitrosomonas spp.; 0.10 ppm, week 12): 219 PPM | Recovery of Ammonium Nitrogen (Nitrosomonas spp.; 0.10 ppm, week 12): 10 PPM | Concentration of nitrate nitrogen (Nitrosomonas spp.; 0.10 ppm, week 16): 233 PPM | Recovery of Ammonium Nitrogen (Nitrosomonas spp.; 0.10 ppm, week 16): 5 PPM | Recovery of Ammonium Nitrogen (Nitrosomonas spp.; 0.10 ppm, week 20): 0 PPM | Specific inhibition of nitrification through activity against Nitrosomonas spp., in words (Nitrosomonas spp.; 0.1 to 0.5 ppm): appear to specifically inhibit nitrification through activity against Nitrosomonas spp. | Concentration of nitrate nitrogen (Nitrosomonas spp.; 0.25 ppm, week 0): 19 PPM | Recovery of Ammonium Nitrogen (Nitrosomonas spp.; 0.25 ppm, week 0): 193 PPM | Concentration of nitrate nitrogen (Nitrosomonas spp.; 0.25 ppm, week 1): 23 PPM | Recovery of Ammonium Nitrogen (Nitrosomonas spp.; 0.25 ppm, week 1): 176 PPM | Concentration of nitrate nitrogen (Nitrosomonas spp.; 0.25 ppm, week 2): 22 PPM | Recovery of Ammonium Nitrogen (Nitrosomonas spp.; 0.25 ppm, week 2): 189 PPM | Concentration of nitrate nitrogen (Nitrosomonas spp.; 0.25 ppm, week 4): 23 PPM | Recovery of Ammonium Nitrogen (Nitrosomonas spp.; 0.25 ppm, week 4): 185 PPM | Concentration of nitrate nitrogen (Nitrosomonas spp.; 0.25 ppm, week 7): 45 PPM | Recovery of Ammonium Nitrogen (Nitrosomonas spp.; 0.25 ppm, week 7): 167 PPM | Concentration of nitrate nitrogen (Nitrosomonas spp.; 0.25 ppm, week 9): 44 PPM | Recovery of Ammonium Nitrogen (Nitrosomonas spp.; 0.25 ppm, week 9): 171 PPM | Concentration of nitrate nitrogen (Nitrosomonas spp.; 0.25 ppm, week 12): 57 PPM | Recovery of Ammonium Nitrogen (Nitrosomonas spp.; 0.25 ppm, week 12): 168 PPM | Concentration of nitrate nitrogen (Nitrosomonas spp.; 0.25 ppm, week 16): 121 PPM | Recovery of Ammonium Nitrogen (Nitrosomonas spp.; 0.25 ppm, week 16): 111 PPM | Concentration of nitrate nitrogen (Nitrosomonas spp.; 0.25 ppm, week 20): 187 PPM | Recovery of Ammonium Nitrogen (Nitrosomonas spp.; 0.25 ppm, week 20): 4 PPM | Concentration of nitrate nitrogen (Nitrosomonas spp.; 0.50 ppm, week 0): 19 PPM | Recovery of Ammonium Nitrogen (Nitrosomonas spp.; 0.50 ppm, week 0): 194 PPM | Concentration of nitrate nitrogen (Nitrosomonas spp.; 0.50 ppm, week 1): 22 PPM | Recovery of Ammonium Nitrogen (Nitrosomonas spp.; 0.50 ppm, week 1): 167 PPM | Concentration of nitrate nitrogen (Nitrosomonas spp.; 0.50 ppm, week 2): 21 PPM | Recovery of Ammonium Nitrogen (Nitrosomonas spp.; 0.50 ppm, week 2): 185 PPM | Concentration of nitrate nitrogen (Nitrosomonas spp.; 0.50 ppm, week 4): 18 PPM | Recovery of Ammonium Nitrogen (Nitrosomonas spp.; 0.50 ppm, week 4): 170 PPM | Concentration of nitrate nitrogen (Nitrosomonas spp.; 0.50 ppm, week 7): 18 PPM | Recovery of Ammonium Nitrogen (Nitrosomonas spp.; 0.50 ppm, week 7): 197 PPM | Concentration of nitrate nitrogen (Nitrosomonas spp.; 0.50 ppm, week 9): 26 PPM | Recovery of Ammonium Nitrogen (Nitrosomonas spp.; 0.50 ppm, week 9): 196 PPM | Concentration of nitrate nitrogen (Nitrosomonas spp.; 0.50 ppm, week 12): 39 PPM | Recovery of Ammonium Nitrogen (Nitrosomonas spp.; 0.50 ppm, week 12): 191 PPM | Concentration of nitrate nitrogen (Nitrosomonas spp.; 0.50 ppm, week 16): 28 PPM | Recovery of Ammonium Nitrogen (Nitrosomonas spp.; 0.50 ppm, week 16): 205 PPM | Concentration of nitrate nitrogen (Nitrosomonas spp.; 0.50 ppm, week 20): 45 PPM | Recovery of Ammonium Nitrogen (Nitrosomonas spp.; 0.50 ppm, week 20): 176 PPM | Effectiveness as nitrification inhibitor, in words (Nitrosomonas spp.; 20 weeks study): second most effective inhibitor | Concentration of nitrite nitrogen (Nitrobacter spp.; 0.10 ppm, week 0): 7 ppm | Concentration of nitrite nitrogen (Nitrobacter spp.; 0.10 ppm, week 1): 5 ppm | Concentration of nitrite nitrogen (Nitrobacter spp.; 0.10 ppm, week 2): 7 ppm | Concentration of nitrite nitrogen (Nitrobacter spp.; 0.10 ppm, week 4): 6 ppm | Concentration of nitrite nitrogen (Nitrobacter spp.; 0.10 ppm, week 7): -4 ppm | Concentration of nitrite nitrogen (Nitrobacter spp.; 0.10 ppm, week 9): 25 ppm | Concentration of nitrite nitrogen (Nitrobacter spp.; 0.10 ppm, week 12): 7 ppm | Concentration of nitrite nitrogen (Nitrobacter spp.; 0.10 ppm, week 16): 7 ppm | Concentration of nitrite nitrogen (Nitrobacter spp.; 0.10 ppm, week 20): 11 ppm | Concentration of nitrite nitrogen (Nitrobacter spp.; 0.25 ppm, week 0): 8 ppm | Concentration of nitrite nitrogen (Nitrobacter spp.; 0.25 ppm, week 1): 5 ppm | Concentration of nitrite nitrogen (Nitrobacter spp.; 0.25 ppm, week 2): 3 ppm | Concentration of nitrite nitrogen (Nitrobacter spp.; 0.25 ppm, week 4): 7 ppm | Concentration of nitrite nitrogen (Nitrobacter spp.; 0.25 ppm, week 7): -1 ppm | Concentration of nitrite nitrogen (Nitrobacter spp.; 0.25 ppm, week 9): 7 ppm | Concentration of nitrite nitrogen (Nitrobacter spp.; 0.25 ppm, week 12): 9 ppm | Concentration of nitrite nitrogen (Nitrobacter spp.; 0.25 ppm, week 16): 2 ppm | Concentration of nitrite nitrogen (Nitrobacter spp.; 0.25 ppm, week 20): 47 ppm | Concentration of nitrite nitrogen (Nitrobacter spp.; 0.50 ppm, week 0): 9 ppm | Concentration of nitrite nitrogen (Nitrobacter spp.; 0.50 ppm, week 1): 3 ppm | Concentration of nitrite nitrogen (Nitrobacter spp.; 0.50 ppm, week 2): 3 ppm | Concentration of nitrite nitrogen (Nitrobacter spp.; 0.50 ppm, week 4): 14 ppm | Concentration of nitrite nitrogen (Nitrobacter spp.; 0.50 ppm, week 7): 4 ppm | Concentration of nitrite nitrogen (Nitrobacter spp.; 0.50 ppm, week 9): -1 ppm | Concentration of nitrite nitrogen (Nitrobacter spp.; 0.50 ppm, week 12): 1 ppm | Concentration of nitrite nitrogen (Nitrobacter spp.; 0.50 ppm, week 16): 8 ppm | Concentration of nitrite nitrogen (Nitrobacter spp.; 0.50 ppm, week 20): 14 ppm
